# Legend:
# human CYP11B1 enzyme = molecular target: T1, human CYP11B1 enzyme (Homo sapiens, UniProt P15538); assay: Enzyme inhibition activity assay in G402 cells stably expressing human CYP11B1 (cortisol production from 11-DC, LC/MS); type: cell-based; conditions: 1 µM 11-DC, 16 hours, cortisol detected
# T1 construct: the ORF of human CYP11B1 or CYP11B2 were transfected into G402 cells; expressed in transfected cells
# T1 sequence (P15538 25-503): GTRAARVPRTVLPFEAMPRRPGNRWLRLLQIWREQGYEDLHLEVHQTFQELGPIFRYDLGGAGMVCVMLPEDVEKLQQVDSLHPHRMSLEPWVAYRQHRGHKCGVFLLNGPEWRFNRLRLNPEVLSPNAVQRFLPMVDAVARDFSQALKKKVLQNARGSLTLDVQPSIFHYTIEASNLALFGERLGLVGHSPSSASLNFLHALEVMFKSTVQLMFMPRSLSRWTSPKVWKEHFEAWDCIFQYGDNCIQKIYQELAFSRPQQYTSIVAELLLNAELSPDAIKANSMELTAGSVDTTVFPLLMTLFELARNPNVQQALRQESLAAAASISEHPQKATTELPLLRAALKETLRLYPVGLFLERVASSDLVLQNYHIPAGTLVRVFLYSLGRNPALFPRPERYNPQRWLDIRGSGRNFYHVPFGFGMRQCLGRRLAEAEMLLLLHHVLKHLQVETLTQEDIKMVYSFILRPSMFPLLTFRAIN
# From the text: (§1) G402 cells (ATCC, CRL 1440) are epithelioid cells isolated from the kidney of a patient with renal failure and are a type of leiomyoblastoma. For the screening of highly specific CYP11B2 inhibitors, we specifically used G402 cell lines stably expressing human CYP11B2 enzyme or human CYP11B1 enzyme for experimental development.
# (§2) Construction of Stably Transfected Cell Lines: Expression plasmids containing suitable promoters, suitable drug resistance markers, and the ORF of human CYP11B1 or CYP11B2 were transfected into G402 cells using standard techniques. The cells were then screened using the specific puromycin resistance marker. Monoclonal cells stably expressing human CYP11B2 were selected for expansion, and 11-deoxycorticosterone (11-DOC) was used as the specific substrate to evaluate enzyme activity based on aldosterone production. Monoclonal cells stably expressing human CYP11B1 were selected for expansion, and 11-deoxycortisol (11-DC) was used as the specific substrate, with cortisol production as the detection target for specific enzyme activity evaluation. The G402 cell lines stably expressing CYP11B1/CYP11B2 were cultured at 37 °C, 5% CO2, 95% air in complete medium (McCoy's 5A + 10% FBS + 1% PS + 0.5 µg/mL puromycin).
# (§3) Enzyme Inhibition Activity Assay: CYP11B1 G402/CYP11B2 G402 cells were spread out flatly in cell culture plates. After 24 hours, the medium was changed to an enzyme testing system (DMEM/F12 + 2.5% charcoal-stripped FCS). Small molecule inhibitors at various concentrations were added. After 1 hour, appropriate concentrations of specific substrates (1 µM 11-DOC / 1 µM 11-DC) were added and co-incubated with the cells for 16 hours. Cells were then collected, and specific products were detected using LC/MS methods with an AB SCIEX TRIPLE QUAD 5500+, CTO-40S instrument (CYP11B2 enzyme detecting aldosterone; CYP11B1 enzyme detecting cortisol).
# (§4) The IC50 values of the compounds were determined based on the G402 testing system. The dose-dependent inhibition of enzyme activity was calculated by plotting the added inhibitor concentration (x-axis) against the percentage of product inhibitory activity relative to the control group (y-axis) based on product formation at various compound concentrations. The following data were then fitted using the least squares method with XLfit 5.5.0 for a four-parameter logistic curve fit: [formula] • Y-axis: Percentage of product inhibitory activity relative to the control group; • logIC50: IC50 was determined using XLFit.
# (§5) The maximum enzyme activity corresponds to the amount of control product steroid/aldosterone in the absence of inhibitor, set as 100%. The minimum enzyme activity corresponds to the amount of reference control product steroid/aldosterone in the presence of inhibitor. Table 3 Inhibitory Activity of the Compounds of the Present Disclosure on CYP11B2 and CYP11B1
# human CYP11B2 enzyme = molecular target: T2, human CYP11B2 enzyme (Homo sapiens, UniProt P19099); assay: Enzyme inhibition activity assay in G402 cells stably expressing human CYP11B2 (aldosterone production from 11-DOC, LC/MS); type: cell-based; conditions: 1 µM 11-DOC, 16 hours, aldosterone detected
# T2 construct: the ORF of human CYP11B1 or CYP11B2 were transfected into G402 cells; expressed in transfected cells
# T2 sequence (P19099 25-503): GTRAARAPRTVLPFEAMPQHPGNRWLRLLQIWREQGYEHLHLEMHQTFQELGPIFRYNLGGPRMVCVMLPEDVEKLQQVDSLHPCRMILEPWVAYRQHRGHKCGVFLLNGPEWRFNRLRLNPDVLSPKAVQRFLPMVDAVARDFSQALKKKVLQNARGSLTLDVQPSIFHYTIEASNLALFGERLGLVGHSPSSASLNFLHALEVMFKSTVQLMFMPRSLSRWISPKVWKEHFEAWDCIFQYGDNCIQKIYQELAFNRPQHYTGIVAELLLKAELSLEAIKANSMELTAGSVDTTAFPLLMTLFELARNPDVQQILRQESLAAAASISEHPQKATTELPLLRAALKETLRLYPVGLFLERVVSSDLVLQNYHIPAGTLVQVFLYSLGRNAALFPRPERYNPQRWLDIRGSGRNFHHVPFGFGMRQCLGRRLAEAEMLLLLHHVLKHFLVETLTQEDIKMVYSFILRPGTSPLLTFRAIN
# From the text: as §1, §2, §3, §4, §5
Structure (SMILES),IC50 (human CYP11B1 enzyme),IC50 (human CYP11B2 enzyme)
COC(=O)N[C@@H]1CCOc2c(-c3ccc4c(ccc(=O)n4C)c3)cncc21 [Compound A42],1700 nM,12.9 nM
COC(=O)N[C@@H]1CCOc2c(-c3ccc4c(c3)COC(=O)N4C)cncc21 [Compound A43],572 nM,6.6 nM
COC(=O)N[C@@H]1CCCc2c(-c3cc(F)c4c(ccc(=O)n4C)c3)cncc21 [Compound A47],720 nM,6.9 nM
[2H]C([2H])([2H])OC(=O)N[C@@H]1CCCc2c(-c3cc(F)c4c(ccc(=O)n4C)c3)cncc21 [Compound A48],712 nM,5.9 nM
COC(=O)N[C@@H]1CCOc2c(-c3cc(F)c4c(ccc(=O)n4C)c3)cncc21 [Compound A49],2210 nM,14.9 nM
COC(=O)N[C@@H]1CCCc2c(-c3cc(Cl)c4c(ccc(=O)n4C)c3)cncc21 [Compound A51],625 nM,4.4 nM
[2H]C([2H])([2H])OC(=O)N[C@@H]1CCCc2c(-c3cc(Cl)c4c(ccc(=O)n4C)c3)cncc21 [Compound A52],797 nM,5.9 nM
COC(=O)N[C@@H]1CCOc2c(-c3cc(Cl)c4c(ccc(=O)n4C)c3)cncc21 [Compound A53],2010 nM,13.1 nM
[2H]C([2H])([2H])OC(=O)N[C@@H]1CCOc2c(-c3cc(Cl)c4c(ccc(=O)n4C)c3)cncc21 [Compound A54],1660 nM,13.6 nM
CCC(=O)N[C@@H]1CCCc2c(-c3ccc4c(ccc(=O)n4C)c3)cncc21 [Compound C04],2500 nM,19.2 nM
CCC(=O)N[C@@H]1CCCc2c(-c3ccc4c(c3)CNC(=O)N4C)cncc21 [Compound C06],2400 nM,31.1 nM
CCC(=O)N[C@@H]1CCCc2c(-c3ccc4c(c3)OCC(=O)N4C)cncc21 [Compound C09],3850 nM,31 nM
CCC(=O)N[C@@H]1CCCc2c(-c3ccc4c(c3)CCCC(=O)N4C)cncc21 [Compound C15],2550 nM,24.5 nM
CCC(=O)N[C@@H]1CCCc2c(-c3ccc4c(c3)cc(C#N)n4C)cncc21 [Compound C36],266 nM,1.4 nM
CCC(=O)N[C@@H]1CCCc2c(-c3cnc4c(c3)cc(C#N)n4C)cncc21 [Compound C37],1720 nM,11.4 nM
CCC(=O)N[C@@H]1CCCc2c(-c3cc(Cl)c4c(ccc(=O)n4C)c3)cncc21 [Compound C42],4030 nM,11.1 nM
C[C@H](F)C(=O)N[C@@H]1CCCc2c(-c3ccc4c(c3)CCC(=O)N4C)cncc21 [Compound D07-P2],1630 nM,11.8 nM

# Further lines, results first:
IC50 (human CYP11B1 enzyme),IC50 (human CYP11B2 enzyme),Structure (SMILES)
288 nM,8.2 nM,COCC(=O)N[C@@H]1CCCc2c(-c3ccc4c(c3)CCC(=O)N4C)cncc21 [Compound D06]
803 nM,11 nM,[2H]C([2H])([2H])NC(=O)N[C@@H]1CCCc2c(-c3ccc4c(c3)CCC(=O)N4C)cncc21 [Compound D08]
275 nM,4.7 nM,CN1CCN([C@@H]2CCCc3c(-c4ccc5c(c4)CCC(=O)N5C)cncc32)C1=O [Compound D10]
1060 nM,7.4 nM,CN(C)C(=O)N[C@@H]1CCCc2c(-c3ccc4c(c3)CCC(=O)N4C)cncc21 [Compound D11]
362 nM,7.3 nM,CN1C(=O)CCc2cc(-c3cncc4c3CCC[C@H]4N3CCOC3=O)ccc21 [Compound D12]
128 nM,2.5 nM,[2H]C([2H])([2H])OC(=O)N[C@@H]1CCCc2c(-c3ccc4c(c3)CCC(=O)N4C)cncc21 [Compound D15]
1230 nM,19.5 nM,[2H]C([2H])([2H])N(C(=O)N[C@@H]1CCCc2c(-c3ccc4c(c3)CCC(=O)N4C)cncc21)C([2H])([2H])[2H] [Compound D16]

# Reference: patent EP4806899A1, “FUSED RING DERIVATIVE, PREPARATION METHOD THEREFOR AND USE THEREOF IN MEDICINE” (Shanghai Qilu Pharmaceutical Research and Development …, priority 2023, dated 2025)
